Reference: patent publication US7244738B2, “Arylamine-substituted quinazolinone compounds useful as alpha 1A/B adrenergic receptor antagonists” (Roche Palo Alto LLC, priority 2003, dated 2007)

Row | Compound | melting point [°C]
1 | COc1cc2[nH]c(N(C)Cc3cccc(/N=C(\C)N(C)C)c3)nc(=O)c2cc1OC [Example 70, N′-(3-{[(6,7-Dimethoxy-4-oxo-1,4-dihydro-quinazolin-2-yl)-methyl-amino]-methyl}-phenyl)-N,N-dimethyl-acetamidine] | 221.8 to 223
2 | CCN(C)Cc1cccc(CN(C)c2nc(=O)c3c(C)c(OC)c(OC)cc3[nH]2)c1 [Example 71, 2-({3-[(Ethyl-methyl-amino)-methyl]-benzyl}-methyl-amino)-6,7-dimethoxy-5-methyl-1H-quinazolin-4-one] | 146.7 to 150.8
3 | COc1cc2[nH]c(NCc3cccc(/N=C(\C)N(C)C)c3)nc(=O)c2c(C)c1OC [Example 72, N′-{3-[(6,7-Dimethoxy-5-methyl-4-oxo-1,4-dihydro-quinazolin-2-ylamino)-methyl]-phenyl}-N,N-dimethyl-acetamide] | 173 to 175
4 | COc1ccnc(N2CCN(c3nc(=O)c4c(OC)c(OC)c(OC)cc4[nH]3)CC2)c1 [Example 73, 5,6,7-Trimethoxy-2-[4-(4-methoxy-pyridin-2-yl)-piperazin-1-yl]-1H-quinazolin-4-one] | 229 to 231
5 | COc1cc2c(=O)nc(N(C)Cc3cccc(/N=C(\C)N(C)C)c3)[nH]c2cc1Cl [Example 74, N′-(3-{[(7-Chloro-6-methoxy-4-oxo-1,4-dihydro-quinazolin-2-yl)-methyl-amino]-methyl}-phenyl)-N,N-dimethyl-acetamide] | 185.4 to 191.9
6 | COc1cc2[nH]c(N(C)Cc3cccc(N4CCC(C)C4=O)c3)nc(=O)c2c(OC)c1OC (centres unmarked) [Example 75, 5,6,7-Trimethoxy-2-{methyl-[3-(3-methyl-2-oxo-pyrrolidin-1-yl)-benzyl]-amino}-1H-quinazolin-4-one] | 156.4 to 162
7 | COc1cc2[nH]c(N(C)Cc3cccc(N4CCNC4=O)c3)nc(=O)c2c(C)c1OC [Example 76, 6,7-Dimethoxy-5-methyl-2-{methyl-[3-(2-oxo-imidazolidin-1-yl)-benzyl]-amino}-1H-quinazolin-4-one] | 265 to 266

The remaining lines, values ahead:

Row | melting point [°C] | Compound
8 | 150 to 152.1 | COCCNCc1cccc(CN(C)c2nc(=O)c3c(C)c(OC)c(OC)cc3[nH]2)c1 [Example 77]
9 | 211 to 214 | COc1cc2[nH]c(N(C)Cc3cccc(NC4=NCCC4)c3)nc(=O)c2cc1OC [Example 87, 2-{[3-(4,5-Dihydro-3H-pyrrol-2-ylamino)-benzyl]-methyl-amino}-6,7-dimethoxy-1H-quinazolin-4-one]
10 | 163.8 to 176.9 | COc1cc2[nH]c(N(C)Cc3cccc(NC4=NCCN4)c3)nc(=O)c2cc1OC [Example 89, 2-{[3-(4,5-Dihydro-1H-imidazol-2-ylamino)-benzyl]-methyl-amino}-6,7-dimethoxy-1H-quinazolin-4-one]
11 | 240 to 242 | COc1cc2[nH]c(N(C)Cc3cccc(N4C=NC(C)(C)C4)c3)nc(=O)c2cc1OC [Example 90, 2-{[3-(4,4-Dimethyl-4,5-dihydro-imidazol-1-yl)-benzyl]-methyl-amino}-6,7-dimethoxy-1H-quinazolin-4-one]
12 | 135 to 138.1 | COc1cc2[nH]c(N(C)CCc3cccc(/N=C(\C)N(C)C)c3)nc(=O)c2cc1OC [Example 91, N′-(3-{2-[(6,7-Dimethoxy-4-oxo-1,4-dihydro-quinazolin-2-yl)-methyl-amino]-ethyl}-phenyl)-N,N-dimethyl-acetamidine]
13 | 195.9 to 197.9 | CNc1cccc(CN(C)c2nc(=O)c3c(C)c(OC)c(OC)cc3[nH]2)c1 [Example 102, 6,7-Dimethoxy-5-methyl-2-[methyl-(3-methylamino-benzyl)-amino]-1H-quinazolin-4-one]
14 | 225 to 226.5 | COc1cc2[nH]c(N(C)Cc3cccc(N)c3)nc(=O)c2c(OC)c1OC [Example 103, 2-[(3-Amino-benzyl)-methyl-amino]-5,6,7-trimethoxy-1H-quinazolin-4-one]
